According to patent US20240299359A1, “PHARMACEUTICAL COMPOSITION FOR ANIMALS CONTAINING 5-HYDROXY-METHYLIMIDAZOLIDINE-2,4-DIONE COMPOUND AS ACTIVE INGREDIENT” (KYONGBO PHARM. CO., LTD., priority 2021, published 2024):
Where “and” joins values, the source holds several entries; their conditions need not be identical. Equal entries are not always repeated.

System: beagles
Test: 13-week repeated oral toxicity: blood coagulation test (PT, aPTT, fibrinogen)
Type: in vivo, beagle
Method: Blood Coagulation Test (PT, aPTT, Fibrinogen)
2 ml of collected blood was placed in a 3.2% sodium citrate tube, and centrifuged at 4,000 rpm for 10 minutes at 4° C., and plasma was collected for blood coagulation analysis. Prothrombin time (PT), activated partial thromboplastin time (aPTT), and fibrinogen (FIB) were analyzed using a blood coagulation measuring device (Werfen ACL ELITE Pro).

[1] = G2 200 mg/kg, repeated administration for 13 week, female, group mean
[2] = G2 200 mg/kg, repeated administration for 13 week, female, individual animals
[3] = G2 200 mg/kg, repeated administration for 13 week, male, group mean
[4] = G2 200 mg/kg, repeated administration for 13 week, male, individual animals
[5] = G3 500 mg/kg, repeated administration for 13 week, female, group mean
[6] = G3 500 mg/kg, repeated administration for 13 week, female, individual animals
[7] = G3 500 mg/kg, repeated administration for 13 week, male, group mean
[8] = G3 500 mg/kg, repeated administration for 13 week, male, individual animals
[9] = G4 1,000 mg/kg, repeated administration for 13 week, female, group mean
[10] = G4 1,000 mg/kg, repeated administration for 13 week, female, individual animals
[11] = G4 1,000 mg/kg, repeated administration for 13 week, male, group mean
[12] = G4 1,000 mg/kg, repeated administration for 13 week, male, individual animals
[13] = before administration (day 0), 200 mg/kg group (G2), female, individual animals, 200 mg/kg
[14] = before administration (day 0), 200 mg/kg group (G2), female
[15] = before administration (day 0), 200 mg/kg group (G2), male, individual animals, 200 mg/kg
[16] = before administration (day 0), 200 mg/kg group (G2), male
[17] = before administration (day 0), 500 mg/kg group (G3), female, individual animals, 500 mg/kg
[18] = before administration (day 0), 500 mg/kg group (G3), female
[19] = before administration (day 0), 500 mg/kg group (G3), male, individual animals, 500 mg/kg
[20] = before administration (day 0), 500 mg/kg group (G3), male
[21] = before administration (day 0), 1,000 mg/kg group (G4), female, individual animals
[22] = before administration (day 0), 1,000 mg/kg group (G4), female
[23] = before administration (day 0), 1,000 mg/kg group (G4), male, individual animals
[24] = before administration (day 0), 1,000 mg/kg group (G4), male

CN1C(=O)NC(=O)C1O (stereo not drawn) [KBP-001, 5-hydroxy-1-methylimidazolidine-2,4-dione]
FIB [1]: 195.00 mg/dL
PT [1]: 7.67 s
aPTT [1]: 14.03 s
FIB [2]: 170 mg/dL and 164 mg/dL and 251 mg/dL
PT [2]: 7.6 sec (2×) and 7.8 sec
aPTT [2]: 13.8 s and 13.3 s and 15.0 s
FIB [3]: 293.00 mg/dL
PT [3]: 7.87 s
aPTT [3]: 13.13 s
FIB [4]: 299 mg/dL and 268 mg/dL and 312 mg/dL
PT [4]: 8.5 s and 8.2 s and 6.9 s
aPTT [4]: 12.7 s and 13.0 s and 13.7 s
FIB [5]: 250.00 mg/dL
PT [5]: 7.53 s
aPTT [5]: 14.37 s
FIB [6]: 212 mg/dL and 230 mg/dL and 308 mg/dL
PT [6]: 8.6 s and 6.7 s and 7.3 s
aPTT [6]: 15.2 s and 13.7 s and 14.2 s
FIB [7]: 312.67 mg/dL
PT [7]: 7.20 s
aPTT [7]: 15.17 s
FIB [8]: 347 mg/dL and 302 mg/dL and 289 mg/dL
PT [8]: 7.4 s and 7.2 s and 7.0 s
aPTT [8]: 15.3 s and 14.8 s and 15.4 s
FIB [9]: 307.00 mg/dL
PT [9]: 7.57 s
aPTT [9]: 14.03 s
FIB [10]: 442 mg/dL and 273 mg/dL and 206 mg/dL
PT [10]: 7.1 sec (2×) and 8.5 sec
aPTT [10]: 12.9 s and 13.0 s and 16.2 s
FIB [11]: 318.67 mg/dL
PT [11]: 7.53 s
aPTT [11]: 13.93 s
FIB [12]: 292 mg/dL and 386 mg/dL and 278 mg/dL
PT [12]: 7.6 s and 7.3 s and 7.7 s
aPTT [12]: 15.2 s and 12.8 s and 13.8 s
FIB [13]: 114 mg/dL and 184 mg/dL and 218 mg/dL
PT [13]: 8.5 s and 7.6 s and 7.3 s
aPTT [13]: 14.9 s and 15.3 s and 14.0 s
FIB, Mean [14]: 172.00 mg/dL
PT, Mean [14]: 7.80 s
aPTT, Mean [14]: 14.73 s
FIB [15]: 270 mg/dL and 254 mg/dL and 233 mg/dL
PT [15]: 9.2 s and 8.4 s and 7.2 s
aPTT [15]: 15.5 s and 12.1 s and 12.4 s
FIB, Mean [16]: 252.33 mg/dL
PT, Mean [16]: 8.27 s
aPTT, Mean [16]: 13.33 s
FIB [17]: 186 mg/dL and 199 mg/dL and 268 mg/dL
PT [17]: 8.8 s and 7.4 s and 7.9 s
aPTT [17]: 14.5 s and 11.9 s and 13.8 s
FIB, Mean [18]: 217.67 mg/dL
PT, Mean [18]: 8.03 s
aPTT, Mean [18]: 13.40 s
FIB [19]: 235 mg/dL and 254 mg/dL and 239 mg/dL
PT [19]: 7.6 s and 7.2 s and 7.3 s
aPTT [19]: 15.2 s and 14.6 s and 12.1 s
FIB, Mean [20]: 242.67 mg/dL
PT, Mean [20]: 7.37 s
aPTT, Mean [20]: 13.97 s
FIB [21]: 237 mg/dL and 230 mg/dL and 258 mg/dL
PT [21]: 7.6 s and 7.8 s and 8.3 s
aPTT [21]: 11.1 s and 14.2 s and 15.6 s
FIB, Mean [22]: 194.73 mg/dL
PT, Mean [22]: 6.53 s
aPTT, Mean [22]: 11.62 s
FIB [23]: 305 mg/dL and 312 mg/dL and 237 mg/dL
PT [23]: 8.3 s and 7.2 s and 8.0 s
aPTT [23]: 14.8 s and 11.3 s and 14.7 s
FIB, Mean [24]: 200.81 mg/dL
PT, Mean [24]: 6.57 s
aPTT, Mean [24]: 11.52 s
